Reference: ChEMBL document CHEMBL1201862, “PubChem BioAssay data set” (2004)
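1) Cells in 96-well plates. 2) Compound, 48 h, 5 concentrations. 3) Linear interpolation between surrounding doses. 4) Unreached endpoint = highest concentration. Here, GI50 denotes the concentration required for 50% inhibition of growth.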 Activity calls are given as the source filed them. Cut-off read from the data, not from the text of the source: active = GI50 up to about 1.1 µM and inactive = higher.

Columns and labels:
Experiment in all cases: NCI-60 cell line screen, 48 h
MOLT-4 = system: MOLT-4
Malme-3M = system: Malme-3M
M14 = system: M14
CAKI-1 = system: CAKI-1
786-0 = system: 786-0
SK-MEL-5 = system: SK-MEL-5
SF-268 = system: SF-268
HCC 2998 = system: HCC 2998
SF-295 = system: SF-295
SK-MEL-28 = system: SK-MEL-28
NCI-H226 = system: NCI-H226
A498 = system: A498
LOX IMVI = system: LOX IMVI
UACC-62 = system: UACC-62
UACC-257 = system: UACC-257
OVCAR-4 = system: OVCAR-4
MDA-MB-231 = system: MDA-MB-231
T47D = system: T47D
PC-3 = system: PC-3

SMILES | GI50 (MOLT-4) | GI50 (Malme-3M) | GI50 (M14) | GI50 (CAKI-1) | GI50 (786-0) | GI50 (SK-MEL-5) | GI50 (SF-268) | GI50 (HCC 2998) | GI50 (SF-295) | GI50 (SK-MEL-28) | GI50 (NCI-H226) | GI50 (A498) | GI50 (LOX IMVI) | GI50 (UACC-62) | GI50 (UACC-257) | GI50 (OVCAR-4) | GI50 (MDA-MB-231) | GI50 (T47D) | GI50 (PC-3)
NC(=O)OCC(COc1ccc(Cl)cc1)OC(=O)c1ccccc1Cl (stereo unspecified) | 21 µM (inactive) | 20.3 µM (inactive) | 18.7 µM (inactive) | 26.5 µM (inactive) | 19.4 µM (inactive) | 19.1 µM (inactive) | 24.8 µM (inactive) | 23.8 µM (inactive) | 25.4 µM (inactive) | 18.6 µM (inactive) | 25.1 µM (inactive) | > 100 µM (inactive) | 13.8 µM (inactive) | 17.2 µM (inactive) | 19 µM (inactive) |  |  |  | 
Cc1c(C(=O)CC(=O)C(=O)Nc2c(C(C)C)cccc2C(C)C)[n+]([O-])c2ccccc2[n+]1[O-] | 2.9 µM (inactive) | 7.19 µM (inactive) | 3.4 µM (inactive) | 22 µM (inactive) | 5.21 µM (inactive) | 10.4 µM (inactive) | 5.01 µM (inactive) | 5.14 µM (inactive) | 14.8 µM (inactive) | 13.7 µM (inactive) | 22.6 µM (inactive) | 29.4 µM (inactive) | 3.4 µM (inactive) | 9.98 µM (inactive) | 3.36 µM (inactive) | 3.48 µM (inactive) |  |  | 
CC(C)(C)[C@H]1CC[C@@](O)(c2ccccc2)CC1.CC(C)(C)[C@H]1CC[C@](O)(c2ccccc2)CC1 | 15.6 µM (inactive) | 29.9 µM (inactive) | 18.2 µM (inactive) |  | 18 µM (inactive) | 14.8 µM (inactive) |  | 26.5 µM (inactive) | 36.4 µM (inactive) | 22.5 µM (inactive) | 11.6 µM (inactive) | 19.5 µM (inactive) | 15.3 µM (inactive) | 19.1 µM (inactive) | 22.2 µM (inactive) |  |  |  | 
Cc1ccc2oc(=O)cc(CC(=O)O)c2c1 | > 100 µM (inactive) | > 100 µM (inactive) | > 100 µM (inactive) | > 100 µM (inactive) | > 100 µM (inactive) | > 100 µM (inactive) | > 100 µM (inactive) | > 100 µM (inactive) | > 100 µM (inactive) | > 100 µM (inactive) | > 100 µM (inactive) | > 100 µM (inactive) | > 100 µM (inactive) | > 100 µM (inactive) |  | > 100 µM (inactive) |  |  | 
CN(C)CCNC(=O)c1cccc2c(NC(CS)C(=O)O)c3ccccc3[n+](C)c12 (stereo unspecified) | 41.9 µM (inactive) | 30.2 µM (inactive) | > 100 µM (inactive) |  | 69.2 µM (inactive) | 47 µM (inactive) | 23.6 µM (inactive) | 50 µM (inactive) | > 100 µM (inactive) | > 100 µM (inactive) |  | 77.4 µM (inactive) | 32.8 µM (inactive) | 61.2 µM (inactive) | 60.3 µM (inactive) | > 100 µM (inactive) | 41.4 µM (inactive) | 64.9 µM (inactive) | 49 µM (inactive)
CC(C(=O)c1ccc(Cl)cc1)C1OC(=O)C(Cl)=C1Cl (stereo unspecified) | 24.8 µM (inactive) | 21.4 µM (inactive) | 34.1 µM (inactive) | > 10 µM (inactive) | 21.2 µM (inactive) | 37.9 µM (inactive) | 30.3 µM (inactive) | 26.6 µM (inactive) | > 100 µM (inactive) | 27.3 µM (inactive) | 68.2 µM (inactive) | 41.5 µM (inactive) | 24.3 µM (inactive) | 19.7 µM (inactive) | 35.6 µM (inactive) | 25.7 µM (inactive) |  |  | 
O=C(O)CCC1c2[nH]c3ccccc3c2CCN1Cc1ccccc1 (stereo unspecified) | > 100 µM (inactive) | > 100 µM (inactive) | > 100 µM (inactive) | > 100 µM (inactive) | > 100 µM (inactive) | > 100 µM (inactive) | > 100 µM (inactive) | > 100 µM (inactive) | > 100 µM (inactive) | > 100 µM (inactive) | > 100 µM (inactive) | > 100 µM (inactive) | > 100 µM (inactive) | > 100 µM (inactive) | > 100 µM (inactive) | > 100 µM (inactive) |  |  | 
CC(C)(C)C1CCN(C(=O)c2ccccc2)CC1 | 47.3 µM (inactive) | 43.6 µM (inactive) | > 100 µM (inactive) |  | > 100 µM (inactive) | 28.8 µM (inactive) |  | > 100 µM (inactive) | > 100 µM (inactive) |  | > 100 µM (inactive) | > 100 µM (inactive) | > 100 µM (inactive) | > 100 µM (inactive) | 41.1 µM (inactive) |  |  |  | 
COc1ccc(/N=N/c2c(-c3ccccc3)nn(C(=O)CC(=O)Nc3ccc(OC)cc3)c2-c2ccccc2)cc1 | 31.8 µM (inactive) | > 100 µM (inactive) |  | > 100 µM (inactive) | 48.6 µM (inactive) | > 100 µM (inactive) | 48.5 µM (inactive) | > 100 µM (inactive) | 21.1 µM (inactive) | > 100 µM (inactive) | > 100 µM (inactive) | 33.2 µM (inactive) | > 100 µM (inactive) | 42.1 µM (inactive) | > 100 µM (inactive) | > 100 µM (inactive) |  |  | 
O=C1Nc2cc(F)ccc2C1=O | > 100 µM (inactive) | > 100 µM (inactive) | > 100 µM (inactive) | > 100 µM (inactive) | > 100 µM (inactive) | > 100 µM (inactive) | > 100 µM (inactive) | > 100 µM (inactive) | > 100 µM (inactive) | > 100 µM (inactive) | > 100 µM (inactive) | > 100 µM (inactive) | > 100 µM (inactive) | > 100 µM (inactive) | > 100 µM (inactive) | > 100 µM (inactive) |  |  | 
CC(C)(C)NNc1c([N+](=O)[O-])cnn(-c2ccccc2)c1=O | 2.13 µM (inactive) | 4.05 µM (inactive) | 2.17 µM (inactive) | 8.69 µM (inactive) | 6.24 µM (inactive) | 4.51 µM (inactive) | 9.82 µM (inactive) | 7.14 µM (inactive) | 6.28 µM (inactive) | 2.49 µM (inactive) | 7.96 µM (inactive) | 29.8 µM (inactive) | 1.79 µM (inactive) | 3.5 µM (inactive) | 4.6 µM (inactive) | 3.59 µM (inactive) |  | 2.29 µM (inactive) | 1.83 µM (inactive)
CCC(CC)n1cc(C(=O)NC(=O)NCCCCCOC(=O)CCCCCCCCCCC(=O)OCCCCCNC(=O)NC(=O)c2cn(C(CC)CC)c(=O)[nH]c2=O)c(=O)[nH]c1=O | > 100 µM (inactive) | > 100 µM (inactive) | > 100 µM (inactive) | > 100 µM (inactive) | 45.8 µM (inactive) | > 100 µM (inactive) | > 100 µM (inactive) | > 100 µM (inactive) | > 100 µM (inactive) | > 100 µM (inactive) | > 100 µM (inactive) | > 100 µM (inactive) | > 100 µM (inactive) | > 100 µM (inactive) | > 100 µM (inactive) | > 100 µM (inactive) |  |  | 
[O-][S+]1Nc2c(Cl)cc(Cl)c(Cl)c2S1 (stereo unspecified) | 34.7 µM (inactive) | > 100 µM (inactive) | > 100 µM (inactive) | 41.2 µM (inactive) | > 100 µM (inactive) | 70.6 µM (inactive) | > 100 µM (inactive) | > 100 µM (inactive) | > 100 µM (inactive) | > 100 µM (inactive) | > 100 µM (inactive) | 82.6 µM (inactive) | 78.9 µM (inactive) | > 100 µM (inactive) | > 100 µM (inactive) | > 100 µM (inactive) |  |  | 
C/C=C/C=C\C(=O)C1c2cccc(O)c2C(=O)c2c(O)cc(C)cc21 (stereo unspecified) | 2.92 µM (inactive) | 1.68 µM (inactive) |  | 2.08 µM (inactive) | 2.03 µM (inactive) | 1.39 µM (inactive) | 0.705 µM (active) | 0.306 µM (active) | 0.957 µM (active) | 1.69 µM (inactive) | 1.11 µM (active) | 2.74 µM (inactive) | 1.79 µM (inactive) |  | 1.83 µM (inactive) | 1.7 µM (inactive) |  |  | 
CC12CCC3(OCCO3)C(OC(=O)c3ccccc3)=C1CCC21OCCO1 (stereo unspecified) | > 100 µM (inactive) | > 100 µM (inactive) | > 100 µM (inactive) | > 100 µM (inactive) | > 100 µM (inactive) | > 100 µM (inactive) | > 100 µM (inactive) | > 100 µM (inactive) | > 100 µM (inactive) | > 100 µM (inactive) | 4.7 µM (inactive) | > 100 µM (inactive) | > 100 µM (inactive) | > 100 µM (inactive) | > 100 µM (inactive) | > 100 µM (inactive) |  |  | 
CC12OC3(C)OC(=O)C(c4ccccc4)(O1)C3(C)O2 (stereo unspecified) | > 100 µM (inactive) | > 100 µM (inactive) | > 100 µM (inactive) | > 100 µM (inactive) | > 100 µM (inactive) | > 100 µM (inactive) | > 100 µM (inactive) | > 100 µM (inactive) | > 100 µM (inactive) | > 100 µM (inactive) | > 100 µM (inactive) | > 100 µM (inactive) | > 100 µM (inactive) | > 100 µM (inactive) | > 100 µM (inactive) | > 100 µM (inactive) |  |  | 
CCCCCCCCC1C(C)c2c([nH]c3ccccc23)C2C(=O)N(c3ccccc3)C(=O)C21 (stereo unspecified) | 2.27 µM (inactive) | 19.5 µM (inactive) | 14 µM (inactive) | 14 µM (inactive) | 13.1 µM (inactive) | 16.3 µM (inactive) |  | 12.5 µM (inactive) | 15.7 µM (inactive) | 16.8 µM (inactive) | 11.8 µM (inactive) | 21.1 µM (inactive) |  | 18.9 µM (inactive) | > 10 µM (inactive) | 4.3 µM (inactive) |  |  | 
